In one assay the test system is Ac24-SMT. As to the kind of experiment: Substrate kinetics and product analysis with recombinant Ac24-SMT. Format: biochemical, Acanthamoeba castellanii. The settings on record: for product ratio generated by Ac24-SMT: normalized to cycloartenol at ∼70% conversion, saturating substrate, 45 min, 35°C. Here is the method:
(§1) The SMT constructs were transformed into competent BL21(DE3) cells and transformants selected against 100 µg/ml ampicillin. Expression of the SMT constructs and partial purification of the recombinant proteins followed the procedure described previously ([19]). […] In one tube, cells were induced by addition of isopropyl thio-galactoside at a final concentration of 1 mM and in the other tube, were un-induced. Cells were harvested 2 and 4 h after induction and an equal number of cells (as calculated by OD @600 nm) from induced (+) and un-induced (−) cultures were boiled with 1X Laemmli’s buffer and analyzed by SDS-PAGE (12%). Gel was stained with Coomassie Brilliant Blue (0.2%) to establish the molecular weight and purity of the expressed protein. Total protein concentrations were determined by Bradford dye-binding procedure with bovine γ-globulin as standard. To determine the catalytic activity of the recombinant proteins, enzyme assays were carried out using soluble bacterial extract (100,000 g fraction) in 9 ml test tubes containing a total of 600 µl assay volume for 45 min (initial velocity conditions). The assay buffer contained 20 mM phosphate buffer in 5% (v/v) glycerol at pH 7.5, sterol acceptor emulsified in 12 µl Tween 80 (1.2 g/l), and the substrate tested over the concentration range 5 to 150 µM against 1.2 mg of total protein. The reaction was initiated by the addition of saturating levels of [methyl-^3H3]SAM, 0.9 µCi, at 150 µM. Incubation mixtures were saponified with methanolic potassium hydroxide and extracted with hexane (3 × 1 ml) and concentrated to dryness providing the nonsaponifiable lipid fraction; radioactivity was determined by liquid scintillation counting. […]

For a further assay, the system named is Ac28-SMT. In words: Substrate kinetics and product analysis with recombinant Ac28-SMT. Format: biochemical, Acanthamoeba castellanii. On the set-up: catalytic competence (kcat/Km) with Ac28-SMT: unit not given here. The settings on record: for product ratio generated by Ac28-SMT: normalized, saturating substrate, 45 min, 35°C. Here is the method:
as §1

In another assay the test system is TbSMT. On the set-up: method as in PMID 26496686. Particulars: cited from earlier work.
In assay [1] the test system is Acanthamoeba castellanii trophozoites (strain ATCC 30010). In words: Ac trophozoite growth inhibition and minimum amoebicidal concentration (trypan blue exclusion). It is filed as cell-based. Particulars: 48 h incubation. How it is done: Ac strain ATCC 30010 was inoculated (1 × 10^4 cells/ml) into tissue culture T-25 ml flasks, prepared with ATTC media 712 and cultured axenically in 5 ml medium at 25°C. Continuous cultures populated by trophozoites ([…]; the remaining cells were cysts) was maintained by sub-culturing 4–5 day growth arrested cells (1 × 10^6 cells/ml) into fresh medium. Steroidal inhibitor and azole susceptibility assays were performed in 24-well (4 × 6) microtiter plates (3 ml total). Trophozoite assay conditions and preparation of stock solutions made to 1 μg/10 μl and 1 μg/100 μl in DMSO through serial dilution to achieve final inhibitor concentrations of 64, 32, 16, 8, 4, 2, 1, 0.5, 0.25, 0.125, 0.0625, and 0.03125 µg/ml in 1% DMSO as reported previously for voriconazole incubated with Ac ([25]). Growth curves to evaluate treated trophozoites were initiated with 1 × 10^6 cells/ml and incubated for 48 h. Cell number was calculated with the use of a hemocytometer. The percentage of viable trophozoites following exposure to different concentrations of inhibitors was determined by the standard trypan blue exclusion method. Cells stained blue were considered nonviable. […] The IC50 of inhibitors against trophozoite growth was evaluated using GraphPad Prism with default setting (GraphPad Software Inc., CA).

Assay [2] concerns Acanthamoeba castellanii trophozoites sterol biosynthesis. In words: Sterol composition of treated Ac trophozoites (GC/MS). It is filed as cell-based. The settings on record: to 48 h. Here is the method: Amoeba and HEK cells were harvested at one or more points during growth in the presence and absence of steroidal inhibitor and azole at IC50 or MACs of the inhibitor or at 40 µM for HEK cells. Cell pellets were split with an internal standard of known amounts of 5α-cholestane added to one of the cell pellets for determination of sterol amounts in cells. Cells were saponified directly in aqueous methanolic potassium hydroxide at the reflux temperature for 1 h, which yielded total sterol (free plus sterol released from ester bonds). The resulting neutral lipids obtained by dilution with water and extraction with hexane (Fisher) were analyzed by GC/MS or HPLC-equipped with a diode array detector against cholesterol as a chromatographic reference. GC and HPLC retention times of sterols were compared with those obtained from authentic standards in our steroid collection ([18]–[22]). To determine the trophozoite sterol metabolome, GC/MS analysis of cell pellet nonsaponfiables was typically carried out using control cultures incubated in 5 ml medium in 25 ml T-flasks inoculated with 1 × 10^4 trophozoites/ml and cultured for 72 h. To generate significant cell pellets for sterol analysis of treated cells, trophozoites were cultured in 10 ml medium in 25 ml T-flasks inoculated with 1 × 10^5 cells/ml and grown for 48 h.

The test system of assay [3] is Acanthamoeba castellanii trophozoites (strain ATCC 30010). Also on record: method as in PMID 26014948. Particulars: previously reported; read-out: IC50 for Ac growth, previously reported value; cited from earlier work.

Where two headings read alike, the source gives them in different places.

For `CC(C)=CCCC(C)C1CC[C@@]2(C)C3=C(CCC12C)C1(C)CCC(O)CC1CC3` (stereo partly drawn) [14α-methylzymosterol], the “product ratio generated by Ac24-SMT” value in the assay on Ac24-SMT is 97. In the assay with Ac28-SMT, the “product ratio generated by Ac28-SMT” value was 26.
As for `C=C(CCC(C)C1CCC2(C)C3CCC4C(C)(C)C(O)CCC45CC35CCC12C)C(C)C` (stereo not drawn) [24(28)-methylenecycloartanol], the “product ratio generated by Ac24-SMT” value in the assay on Ac24-SMT turned out to be 0. In addition, the “product ratio generated by Ac28-SMT” value in the assay on Ac28-SMT amounted to 0.
Turning to `C=C(CCC(C)C1CCC2C3=CCC4C(C)C(O)CCC4(C)C3CCC21C)C(C)C` (stereo not drawn) [24(28)-methylenelophenol], in the assay on Ac24-SMT, the “product ratio generated by Ac24-SMT” value is 0. In the assay on Ac28-SMT (from Lineweaver-Burk plots), the “Km as substrate of Ac28-SMT” value is about 25 µM, the “catalytic competence (kcat/Km) with Ac28-SMT” value was about 0.03 and the “kcat as substrate of Ac28-SMT” value was about 0.013 s⁻¹. In the assay with Ac28-SMT, the “product ratio generated by Ac28-SMT” value is reported as 100.
Consider `CC(=CCC[C@@H](C)[C@H]1CC[C@H]2C3=CC=C4C[C@@H](O)CC[C@]4(C)[C@H]3CC[C@]12C)CF` [26-flourocholesta-5,7,24-trieniol], for which the “partition ratio against TbSMT” value in the assay with TbSMT is listed as 3.
Regarding `CC(C)=CCCC(C)C1CC[C@@]2(C)C3=C(CCC12C)C1(C)CCC(O)[C@@H](C)C1CC3` (stereo partly drawn) [31-norlanosterol], the “product ratio generated by Ac24-SMT” value in the assay with Ac24-SMT amounted to 100. Moreover, the “product ratio generated by Ac28-SMT” value with Ac28-SMT worked out at 49.
As to `CC(C)=CCCC(C)C1CCC2C3=CC=C4CC(O)CCC4(C)C3CCC21C` (stereo not drawn) [cholesta-5,7,24-trienol], the “product ratio generated by Ac24-SMT” value in the assay with Ac24-SMT is given as 100. Besides, in the assay with Ac28-SMT, the “product ratio generated by Ac28-SMT” value was determined as 50.
`CC(C)=CCC[C@@H](C)[C@H]1CC[C@@]2(C)[C@@H]3CC[C@H]4C(C)(C)[C@@H](O)CC[C@@]45C[C@@]35CC[C@]12C` [cycloartenol]: the “product ratio generated by Ac24-SMT” value in the assay on Ac24-SMT was 100. Besides, the “Km (Michaelis / binding constant) as substrate of Ac24-SMT” value in the assay with Ac24-SMT (saturating SAM 150 µM, initial velocity conditions) is on record as about 44 µM. Besides, the “kcat (turnover rate) as substrate of Ac24-SMT” value in the assay on Ac24-SMT (saturating SAM, initial velocity conditions) is on record as “about 1.5 min^−1”. Besides, in the assay on Ac28-SMT, the “product ratio generated by Ac28-SMT” value stood at 67.
For the compound `C=C(CC[C@@H](C)[C@H]1CC[C@@]2(C)[C@@H]3CC[C@H]4[C@H](C)[C@@H](O)CC[C@@]45C[C@@]35CC[C@]12C)C(C)C` [cycloeucalenol], in the assay with Ac24-SMT, the “product ratio generated by Ac24-SMT” value stood at 0. Further, the “product ratio generated by Ac28-SMT” value with Ac28-SMT worked out at 0.
With `C=C(CCC(C)C1CCC2C3=CCC4CC(O)CCC4(C)C3CCC21C)C(C)C` (stereo not drawn) [episterol], the “product ratio generated by Ac24-SMT” value with Ac24-SMT amounted to 0. The “product ratio generated by Ac28-SMT” value in the assay on Ac28-SMT amounted to 64.
As for `C=C(CCC(C)C1CCC2C3=C(CCC21C)C1(C)CCC(O)CC1CC3)C(C)C` (stereo not drawn) [fecosterol], the “product ratio generated by Ac24-SMT” value in the assay on Ac24-SMT is given as 0. Besides, in the assay on Ac28-SMT, the “product ratio generated by Ac28-SMT” value was 29.
As for `CC(C)=CCC[C@@H](C)[C@H]1CC[C@@]2(C)C3=C(CC[C@]12C)[C@@]1(C)CC[C@H](O)C(C)(C)[C@@H]1CC3` [lanosterol], in the assay with Ac24-SMT, the “product ratio generated by Ac24-SMT” value came out at 100. The “product ratio generated by Ac28-SMT” value in the assay with Ac28-SMT stood at 15.
As for `C=C(CC[C@@H](C)[C@H]1CC[C@@]2(C)C3=C(CC[C@]12C)[C@@]1(C)CC[C@H](O)[C@@H](C)[C@@H]1CC3)C(C)C` [obtusifoliol], the “product ratio generated by Ac24-SMT” value with Ac24-SMT is listed as 0. For the same compound, the “product ratio generated by Ac28-SMT” value with Ac28-SMT was 0.
The term IC50 denotes the midpoint of a concentration-inhibition curve. Regarding `C[C@@H](c1ncncc1F)[C@](O)(Cn1cncn1)c1ccc(F)cc1F` [voriconazole], the “MAC (complete inhibition of growth, minimum amoebicidal concentration)” value in assay [1] turned out to be 3 µM. Besides, the IC50 in assay [1] (Acanthamoeba castellanii, ATCC30010, Ac trophozoites) is 140 nM; in assay [3], 390 nM. Also, in assay [2], the “accumulation of substrate of the target enzyme in treated trophozoites” value is reported as at most 1 % total.
For `CC(C)=CCCC(C)C1CCC2C3=C(CCC21C)C1(C)CCC(O)CC1CC3` (stereo not drawn) [zymosterol], the “product ratio generated by Ac24-SMT” value in the assay with Ac24-SMT worked out at 97. Also, the “product ratio generated by Ac28-SMT” value with Ac28-SMT was 63.
As to eburicol, the “product ratio generated by Ac24-SMT” value with Ac24-SMT is 0. Moreover, the “product ratio generated by Ac28-SMT” value in the assay on Ac28-SMT amounted to 0.

The values are drawn from paper PMC5711494, “Sterol methyltransferase a target for anti-amoeba therapy: towards transition state analog and suicide substrate drug design” (Journal of Lipid Research, 2017).
